Data reported in patent publication US20110046105A1, “Heterocycle-substituted imidazolidine-2,4-diones, process for preparation thereof, medicaments comprising them and use thereof” (SANOFI-AVENTIS, priority 2008, published 2011).

How the values were obtained:
hCB1R [1] = target: T1, hCB1R (Homo sapiens, UniProt P21554); experiment: In vitro functional assay with recombinant cells (FLIPR), cannabinoid 1 receptor; type: cell-based; parameters: expressed in transfected cells; host or cells: HEK293; settings: recombinant HEK293 cells expressing CB1 and G-protein Galpha16; intracellular Ca2+ change against reference agonist
Protocol: (§1) Function-testing assays were performed by means of the FLIPR technique (“Fluorometric Imaging Plate Reader”, Molecular Devices Corp.).
(§2) To this end, ligand-induced changes in the intracellular concentration of Ca^2+ in recombinant HEK293 cells, which expressed both a cannabinoid receptor (CB1 or CB2) and G-protein Galpha16, were determined. For the studies, cells were sown into 96-well microtiter plates (60 000 cells/well) and left to grow overnight. The medium was removed and the cells were incubated in buffer which contained the fluorescent dye Fluo-4. After this loading with dye, the cells were washed, test substance was added dissolved in buffer, the mixture was incubated for 20 minutes, a known cannabinoid receptor agonist as a reference agonist was added in buffer and, finally, the changes in the intracellular Ca^2+ concentration were measured in the FLIPR unit.
(§3) Results were presented as the percentage change relative to the control (0%: analogous experiment without test substance and without reference agonist, i.e. only with buffer; 100%: analogous experiment without test substance, but with reference agonist in excess), and used to calculate dose/action curves, and IC50 values were determined.
The values of the functional assay compared to the cannabinoid 1 receptor including illustrative selectivities compared to the cannabinoid 2 receptor can be taken from table 1 which follows.

[2] = target: T2, cannabinoid CB1 receptor (CB1) (Mus musculus, UniProt P47746); experiment: Antagonization of CB1-mediated hypothermia; type: in vivo; settings: female NMRI mice; 1.25 mg/kg intraperitoneally; within 30 min
T2 construct: from tissue; host or cells: whole animal (female NMRI mice)
Protocol: The test is used to measure the potency of cannabinoid CB1 receptor (CB1) antagonists. What is measured is the extent to which the CB1 antagonists to be tested are capable of preventing or of antagonizing hypothermia induced by a CB1 agonist.
Female NMRI mice, 25-35 g in weight, are used. The mice are accustomed to the housing conditions for at least one week.
At time 0 min, the animals are treated orally, intravenously or intraperitoneally with the CB1 antagonist to be tested. 30 min later, the CB1 agonist CP55.940, 1.25 mg/kg, is administered to the mice intraperitoneally. This brings about a fall in the body temperature by 5-6° C. within 30 min. The body temperature is measured rectally for the first time 30 min before the test substance administration and then every 30 min after this administration, if appropriate immediately before a substance administration, over 4 hours.
The potency of the test substances is reported as the percentage decrease in the area under the temperature-time curve which is formed firstly by the average basal temperature, and secondly by the temperature-time curve, of the animals treated exclusively with the CB1 antagonist.

hCB1R [3] = target: T1, hCB1R; experiment: Binding to the CB1 receptor ([3H]-SR141716A displacement); parameters: expressed in transfected cells; host or cells: CHO-K1; settings: CHO-K1/cannabinoid CB1 protein; ligand [3H]-SR141716A 0.5 nM; Ki from IC50 by Cheng-Prusoff
Protocol: Test compounds: The compounds (3 μl, 10 mM, 100% DMSO), pipetted into 96-well PP microtiter plates, were diluted with 27 μl of 100% DMSO (dimethyl sulfoxide). Proceeding from this solution, further 3-fold dilution steps were undertaken by transferring 10 μl in each case to a new PP microtiter plate and adding a further 20 μl of 100% DMSO. In each case 6 μl of these solutions were transferred into new 96-well PP microtiter plates and made up with 144 μl of assay buffer. The end concentrations ranged from 10 μM to 0.005 μM.
Negative control: AM 251, dissolved in assay buffer with 1% DMSO, was added to the dilution series in the microtiter plates as a control. The end concentration was 1 μM.
Blank control: assay buffer with 1% DMSO was added to the dilution series of the microtiter plates as a blank control.
High control: ^3H binding without addition of the compound
Low control: ^3H binding in the presence of 1 μM AM 251
The values were calculated using the corrected raw data.
The values reported were obtained as average values of a double determination. The IC50 values were calculated from the measurements with the program Xlfit, formula 205. Ki values were obtained from the IC50 and Kd values utilizing the Cheng-Prusoff equation: […]
Literature: Cheng, Y.-C., and Prusoff, W. H. (1973) Biochem. Pharmacol 22, 3099-3108

hCB2R = target: T3, hCB2R (Homo sapiens, UniProt P34972); experiment: In vitro functional assay with recombinant cells (FLIPR), cannabinoid 2 receptor; type: cell-based; settings: recombinant HEK293 cells expressing CB2 and G-protein Galpha16; intracellular Ca2+ change against reference agonist
T3 construct: expressed in transfected cells; host or cells: HEK293
Protocol: as §1, §2
as §3, with “determined. […]” for “determined.”

T1 sequence (P21554 whole entry): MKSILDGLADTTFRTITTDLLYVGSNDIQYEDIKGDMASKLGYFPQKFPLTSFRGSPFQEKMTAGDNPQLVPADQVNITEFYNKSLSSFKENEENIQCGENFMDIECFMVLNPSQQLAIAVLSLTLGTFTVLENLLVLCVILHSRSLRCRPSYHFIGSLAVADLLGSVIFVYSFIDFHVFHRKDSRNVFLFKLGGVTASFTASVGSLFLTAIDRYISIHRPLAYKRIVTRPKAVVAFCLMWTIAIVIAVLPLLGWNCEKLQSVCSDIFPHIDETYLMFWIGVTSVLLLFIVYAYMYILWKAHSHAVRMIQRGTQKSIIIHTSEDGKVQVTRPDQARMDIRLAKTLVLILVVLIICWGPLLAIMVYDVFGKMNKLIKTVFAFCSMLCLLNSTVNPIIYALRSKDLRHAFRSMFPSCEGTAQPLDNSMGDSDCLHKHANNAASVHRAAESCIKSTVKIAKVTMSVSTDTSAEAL
T3 sequence (P34972 whole entry): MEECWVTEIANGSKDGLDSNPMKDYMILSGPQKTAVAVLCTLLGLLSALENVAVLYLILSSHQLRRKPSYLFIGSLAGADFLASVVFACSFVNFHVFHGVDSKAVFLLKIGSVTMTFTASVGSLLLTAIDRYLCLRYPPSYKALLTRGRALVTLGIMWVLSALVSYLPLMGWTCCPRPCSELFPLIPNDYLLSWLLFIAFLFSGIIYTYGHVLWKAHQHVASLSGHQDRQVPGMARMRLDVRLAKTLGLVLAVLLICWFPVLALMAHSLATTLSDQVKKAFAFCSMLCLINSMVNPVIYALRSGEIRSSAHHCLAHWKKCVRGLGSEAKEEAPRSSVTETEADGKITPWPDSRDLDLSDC
T2 sequence (P47746 whole entry): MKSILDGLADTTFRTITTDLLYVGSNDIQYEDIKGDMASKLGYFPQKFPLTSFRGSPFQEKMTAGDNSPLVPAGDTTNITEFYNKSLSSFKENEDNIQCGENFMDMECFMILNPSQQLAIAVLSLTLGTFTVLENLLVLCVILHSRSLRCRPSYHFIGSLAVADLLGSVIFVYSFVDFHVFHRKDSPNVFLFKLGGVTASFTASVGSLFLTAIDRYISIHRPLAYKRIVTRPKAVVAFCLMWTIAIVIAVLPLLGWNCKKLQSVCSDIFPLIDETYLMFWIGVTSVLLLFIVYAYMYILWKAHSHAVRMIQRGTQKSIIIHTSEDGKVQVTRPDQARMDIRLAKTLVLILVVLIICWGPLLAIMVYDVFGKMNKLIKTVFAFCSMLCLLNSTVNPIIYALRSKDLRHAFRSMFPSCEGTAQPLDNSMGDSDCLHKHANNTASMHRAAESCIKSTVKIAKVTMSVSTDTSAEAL

## CC1(C)C(=O)N(c2ccc(F)c(C(F)(F)F)c2)C(=O)N1Cc1ccc(F)cc1Nc1ccc(C2NC(=O)NC2=O)cc1 (centres unmarked) [Example 15, 1-{2-[4-(2,5-dioxoimidazolidin-4-yl)phenylamino]-4-fluorobenzyl}-3-(4-fluoro-3-trifluoromethylphenyl)-5,5-dimethylimidazolidine-2,4-dione]
hCB1R [1]
  IC50: 60 nM

## CCCCCCC(C)(C)c1ccc([C@@H]2C[C@H](O)CC[C@H]2CCCO)c(O)c1 [CP55.940]
[2]
  fall in the body temperature: 5-6 °C

## CC1(C)C(=O)N(c2ccc(F)c(C(F)(F)F)c2)C(=O)N1Cc1ccc(F)cc1Nc1ccc(N2CCNCC2=O)cc1 [Example 13, 1-{4-fluoro-2-[4-(2-oxopiperazin-1-yl)phenylamino]benzyl}-3-(4-fluoro-3-trifluoromethylphenyl)-5,5-dimethylimidazolidine-2,4-dione]
hCB1R [1]
  IC50: 125 nM

## CC1(C)C(=O)N(c2ccc(C#N)c(C(F)(F)F)c2)C(=O)N1Cc1ccccc1Nc1ccc(CN2CCNCC2=O)cc1 [Example 1, 4-(4,4-dimethyl-2,5-dioxo-3-{2-[4-(2-oxopiperazin-1-ylmethyl)phenylamino]-benzyl}imidazolidin-1-yl)-2-trifluoromethylbenzonitrile]
hCB1R [3]
  Ki: 34 nM

## COC(=O)C1CC(=O)N(c2ccc(Nc3cc(F)ccc3CN3C(=O)N(c4ccc(F)c(C(F)(F)F)c4)C(=O)C3(C)C)cc2)C1 (centres unmarked) [Example 6, methyl 1-(4-{5-fluoro-2-[3-(4-fluoro-3-trifluoromethylphenyl)-5,5-dimethyl-2,4-dioxoimidazolidin-1-ylmethyl]phenylamino}phenyl)-5-oxopyrrolidine-3-carboxylate]
hCB1R [3]
  Ki: 40 nM

## CC1(C)C(=O)N(c2ccc(F)c(C(F)(F)F)c2)C(=O)N1Cc1ccc(F)cc1Nc1ccc(OC2CCOCC2)cc1 [Example 18, 1-{4-fluoro-2-[4-(tetrahydropyran-4-yloxy)phenylamino]benzyl}-3-(4-fluoro-3-trifluoromethylphenyl)-5,5-dimethylimidazolidine-2,4-dione]
hCB1R [1]
  IC50: 93 nM

## CC1(C)C(=O)N(c2ccc(F)c(C(F)(F)F)c2)C(=O)N1Cc1ccc(F)cc1Nc1ccc(Nc2ccc(Cl)nn2)cc1 [Example 10, 1-{2-[4-(6-chloropyridazin-3-ylamino)phenylamino]-4-fluorobenzyl}-3-(4-fluoro-3-trifluoromethylphenyl)-5,5-dimethyl-imidazolidine-2,4-dione]
hCB1R [1]
  IC50: 34 nM
hCB1R [3]
  Ki: 7 nM

## CCOc1ccc(Nc2ccc(Nc3cc(F)ccc3CN3C(=O)N(c4ccc(F)c(C(F)(F)F)c4)C(=O)C3(C)C)cc2)nn1 [Example 7, 1-{2-[4-(6-ethoxypyridazin-3-ylamino)phenylamino]-4-fluorobenzyl}-3-(4-fluoro-3-trifluoromethylphenyl)-5,5-dimethyl-imidazolidine-2,4-dione]
hCB1R [1]
  IC50: 32 nM
hCB1R [3]
  Ki: 18 nM

## CC1(C)C(=O)N(c2ccc(F)c(C(F)(F)F)c2)C(=O)N1Cc1ccc(F)cc1Nc1ccc(-n2cnc3ccccc32)cc1 [Example 5, 1-[2-(4-benzimidazol-1-ylphenylamino)-4-fluorobenzyl]-3-(4-fluoro-3-trifluoromethylphenyl)-5,5-dimethylimidazolidine-2,4-dione]
hCB1R [1]
  IC50: 6 nM
hCB1R [3]
  Ki: 4 nM

## CC1(C)C(=O)N(c2ccc(F)c(C(F)(F)F)c2)C(=O)N1Cc1ccccc1Nc1ccc(-c2nnn[nH]2)cc1 [Example 2, 3-(4-fluoro-3-trifluoromethylphenyl)-5,5-dimethyl-1-{2-[4-(1H-tetrazol-5-yl)phenylamino]benzyl}imidazolidine-2,4-dione]
hCB2R
  IC50: > 10 µM
hCB1R [1]
  IC50: 205 nM
hCB1R [3]
  Ki: 108 nM

## CC1(C)C(=O)N(c2ccc(F)c(C(F)(F)F)c2)C(=O)N1Cc1ccc(F)cc1Nc1ccc(N2CCC(O)CC2)cc1 [Example 14, 1-{4-fluoro-2-[4-(4-hydroxypiperidin-1-yl)phenylamino]benzyl}-3-(4-fluoro-3-trifluoromethylphenyl)-5,5-dimethylimidazolidine-2,4-dione]
hCB1R [1]
  IC50: 9 nM

## CC1(C)C(=O)N(c2ccc(F)c(C(F)(F)F)c2)C(=O)N1Cc1ccc(F)cc1Nc1ccc(N2CCNC2=O)cc1 [Example 16, 1-{4-fluoro-2-[4-(2-oxoimidazolidin-1-yl)phenylamino]benzyl}-3-(4-fluoro-3-trifluoromethylphenyl)-5,5-dimethylimidazolidine-2,4-dione]
hCB1R [1]
  IC50: 23 nM

## COc1ccc(Nc2ccc(Nc3cc(F)ccc3CN3C(=O)N(c4ccc(F)c(C(F)(F)F)c4)C(=O)C3(C)C)cc2)nn1 [Example 8, {4-fluoro-2-[4-(6-methoxypyridazin-3-ylamino)phenylamino]benzyl}-3-(4-fluoro-3-trifluoro-methylphenyl)-5,5-dimethylimidazolidine-2,4-dione]
hCB1R [1]
  IC50: 24 nM
hCB1R [3]
  Ki: 10 nM

## CC1(C)C(=O)N(c2ccc(F)c(C(F)(F)F)c2)C(=O)N1Cc1ccc(F)cc1Nc1ccc(N2CCCC2=O)cc1 [Example 4, 1-{4-fluoro-2-[4-(2-oxopyrrolidin-1-yl)phenylamino]benzyl}-3-(4-fluoro-3-trifluoromethylphenyl)-5,5-dimethylimidazolidine-2,4-dione]
hCB1R [3]
  Ki: 103 nM
